Measured values as given in US8889731B2, “Compounds, compositions and methods for repelling blood-feeding arthropods and deterring their landing and feeding” (Contech Enterprises Inc., priority 2007, dated 2014).

System: Anopheles gambiae
Assay: Arm-in-cage repellent/deterrent bioassay on exposed human forearm (modified WHO protocol), Anopheles gambiae
Type: in vivo
Protocol: Candidate repellents and deterrents were bioassayed according to a modified protocol from the World Health Organization (1996). At least 1 hour prior to each bioassay, 75 host-seeking non blood-fed, nulliparous, 5- to 8-day-old female Aedes aegypti, Anopheles gambiae or Culex quinquefasciatus were placed into a wood-framed cage (26.5 cm on each side and 42.5 cm high) with a wooden floor, screened mesh sides and top, and a clear acrylic front fitted with a cotton stockinette sleeve (10 cm diameter). The test subject's arm was covered with an elbow-length polyethylene glove with an excised patch (16.6 cm long, 6 cm wide) to expose the ventral forearm of the test subject. Candidate deterrents were formulated in mineral (paraffin) oil and applied to the exposed forearm 5 min prior to inserting the arm into the cage. The inserted arm remained in the cage for 3 min every 30 min. Prior to each 3-min bioassay period, the hand of the untreated arm was inserted into the cage to ascertain that it received 10 bites within 30 sec as an indication of “biting pressure”.
The bioassay was terminated when the treated arm received ≧2 bites in one 3-min bioassay period or one bite in each of two consecutive bioassay periods. The time elapsed from experiment initiation to first bite was recorded as deterrent failure or complete protection time.
N,N-diethyl-m-toluamide formulated in ethanol at a corresponding dose served as a positive control, and mineral oil by itself served as a negative control. On each day, only one candidate compound was tested, ensuring that any residual material in the chamber had disappeared before the next bioassay.
To determine the repellence and deterrence of 8-allylsulfanyloctan-1-ol against Anopheles gambiae, a 2%, 5% or a 10% formulation of 8-allylsulfanyloctan-1-ol in mineral oil was applied in Experiments 5-7 at a dose of 1.5 mg per cm^2 to the skin of the test person, and was bioassayed according to the protocol described under EXAMPLE 2. In Experiment 8, mineral oil by itself served as a negative control and was tested at the same dose (1.5 mg per cm^2) as in Experiments 5-7. Each of Experiments 5-8 was replicated 4 times.
To be able to compare the repellence and deterrence caused N,N-diethyl-m-toluamide (DEET), and by 8-allylsulfanyloctan-1-ol, Experiment 13 tested a 2% formulation of N,N-diethyl-m-toluamide in ethanol (the best formulant for this compound) for protection from bites by Anopheles gambiae. A dose of 1.5 mg per cm^2 was applied to the skin of the test person and bioassayed according to the protocol described under EXAMPLE 2.
To compare the repellence and deterrence against Anopheles gambiae caused by 8-allyl-sulfanyloctan-1-ol as a single active ingredient and by 8-allylsulfanyloctan-1-ol in combination with vanillin as a second active ingredient, we tested a 6.7% emulsion of vanillin (Experiment 18), a 6.7-% emulsion of 8-allylsulfanyl-octan-1-ol (Experiment 19) and a 13.4% emulsion of 8-allylsulfanyloctan-1-ol plus vanillin (1:1 ratio) (Experiment 20). 8-Allylsulfanyloctan-1-ol and vanillin were formulated in Emulsion No. 1 (see EXAMPLE 9). In each of Experiments 18-20, test stimuli were applied at a dose of 1.5 mg per cm^2 to the skin of the test person, and were bioassayed according to the protocol described under EXAMPLE 2. In Experiment 21, Emulsion No. 1 served as a positive control and was tested at the same dose (1.5 mg per cm^2) as in experiments 18-20. Each of Experiments 18-21 was replicated three times.

## C=CCSCCCCCCCCO [Compound 24, 8-allylsulfanyloctan-1-ol]
2% formulation in mineral oil, 1.5 mg per cm^2, Experiment 5
  protection from bites, average duration: 297 min
5% formulation in mineral oil, 1.5 mg per cm^2, Experiment 6
  protection from bites, average duration: 314 min
6.7% single active in Emulsion No. 1 (FIG. 8 legend: 2.0%), 1.5 mg per cm^2, Experiments 18, 19
  protection from bites, average duration: 369 min
10% formulation in mineral oil, 1.5 mg per cm^2, Experiment 7
  protection from bites, average duration: 487 min
